In patent US9115093B2, “Substituted bicyclic dihydropyrimidinones and their use as inhibitors of neutrophil elastase activity” (Boehringer Ingelheim International GmbH, priority 2013, dated 2015):

What follows are molecules tested against T1, neutrophil elastase (Homo sapiens, UniProt P08246) (assay: Human Neutrophil Elastase Assay). Settings: substrate MeOSuc-Ala-Ala-Pro-Val-AMC, pH 7.5, room temperature.
T1 sequence (P08246 30-247 limits assumed): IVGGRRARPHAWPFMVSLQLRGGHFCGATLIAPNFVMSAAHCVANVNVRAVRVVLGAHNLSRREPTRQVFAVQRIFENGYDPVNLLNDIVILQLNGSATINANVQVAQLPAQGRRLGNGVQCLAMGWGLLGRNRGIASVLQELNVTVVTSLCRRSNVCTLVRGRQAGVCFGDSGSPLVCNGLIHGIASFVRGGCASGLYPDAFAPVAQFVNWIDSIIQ
Assay type: biochemical
Design: purchased Calbiochem 324681
Experimental: Human Neutrophil Elastase Assay
Materials: Human neutrophil elastase was purchased from Calbiochem (Cat.No.: 324681) and the elastase substrate MeOSuc-Ala-Ala-Pro-Val-AMC from Bachem (Cat.No.: I-1270). All other materials were of the highest grade commercially available.
The following buffers were used: Compound buffer: 100 mM Tris, 500 mM NaCl, adjusted to pH 7.5; Assay buffer: 100 mM Tris, 500 mM NaCl, adjusted to pH 7.5, containing 0.01% BSA.
Assay conditions: Test compounds were prediluted in DMSO and subsequently in compound buffer (5% DMSO final). 5 μL of these compound dilutions were mixed with 10 μl Neutrophil elastase (9 ng/ml in assay buffer) in a black 384 well OptiPlate (Perkin Elmer, Cat No.: 6007270) and incubated for 15 min at room temperature. Subsequently 10 μL substrate solution in assay buffer were added (250 nM final concentration) and the plates were incubated for 60 min at room temperature. After inactivation of the enzyme, fluorescence intensities were measured at 380 nm excitation and 460 nm emission wavelengths.
Each plate contains wells with a high value control (DMSO+enzyme+substrate) and wells with a low value control (DMSO+inactivated enzyme+substrate). IC50 values were estimated using a sigmoidal concentration response curve with variable slope. Means of low values were taken as 0%, means of high values as 100%.
An IC50 of 4.6 nM was found for `N#Cc1ccc([C@@H]2C3=C(CCCC3=O)N(c3cccc(C(F)(F)F)c3)C(=O)N2CC(=O)O)cc1` [Example 32A, (R)-2-(4-(4-Cyanophenyl)-2,5-dioxo-1-(3-(trifluoromethyl)phenyl)-1,2,5,6,7,8-hexahydroquinazolin-3(4H)-yl)acetic acid] in this work.
An IC50 of 1410 nM was found for `N#Cc1ccc([C@H]2C3=C(CCCC3=O)N(c3cccc(C(F)(F)F)c3)C(=O)N2CC(=O)O)cc1` [Example 32B, (S)-2-(4-(4-Cyanophenyl)-2,5-dioxo-1-(3-(trifluoromethyl)phenyl)-1,2,5,6,7,8-hexahydroquinazolin-3(4H)-yl)acetic acid] in this work.
An IC50 of 9.6 nM was found for `N#Cc1ccc(C2C3=C(CCCC3=O)N(c3cccc(C(F)(F)F)c3)C(=O)N2CC(N)=O)cc1` (centres unmarked) [Example 33, 2-(4-(4-Cyanophenyl)-2,5-dioxo-1-(3-(trifluoromethyl)phenyl)-1,2,5,6,7,8-hexahydroquinazolin-3(4H)-yl)acetamide] in this work.
An IC50 of 3.1 nM was found for `CN(C)C(=O)CN1C(=O)N(c2cccc(C(F)(F)F)c2)C2=C(C(=O)CCC2)C1c1ccc(C#N)cc1` (centres unmarked) [Example 34, 2-(4-(4-Cyanophenyl)-2,5-dioxo-1-(3-(trifluoromethyl)phenyl)-1,2,5,6,7,8-hexahydroquinazolin-3(4H)-yl)-N,N-dimethylacetamide] in this work.
An IC50 of 1.7 nM was found for `Cn1ncc2c1CN(C(=O)CN1C(=O)N(c3cccc(C(F)(F)F)c3)C3=C(C(=O)CCC3)C1c1ccc(C#N)cc1)C2` (centres unmarked) [Example 35, 4-(3-(2-(1-Methylpyrrolo[3,4-c]pyrazol-5(1H,4H,6H)-yl)-2-oxoethyl)-2,5-dioxo-1-(3-(trifluoromethyl)phenyl)-1,2,3,4,5,6,7,8-octahydroquinazolin-4-yl)benzonitrile] in this work.
An IC50 of 6.4 nM was found for `CNC(=O)CN1C(=O)N(c2cccc(C(F)(F)F)c2)C2=C(C(=O)CCC2)C1c1ccc(C#N)cc1` (centres unmarked) [Example 36.1] in this work.
An IC50 of 13.1 nM was found for `N#Cc1ccc(C2C3=C(CCCC3=O)N(c3cccc(C(F)(F)F)c3)C(=O)N2CC(=O)NC2CC2)cc1` (centres unmarked) [Example 36.2] in this work.
An IC50 of 20.8 nM was found for `N#Cc1ccc(C2C3=C(CCCC3=O)N(c3cccc(C(F)(F)F)c3)C(=O)N2CC(=O)NCC2CC2)cc1` (centres unmarked) [Example 36.3] in this work.
An IC50 of 2.4 nM was found for `CN(C(=O)CN1C(=O)N(c2cccc(C(F)(F)F)c2)C2=C(C(=O)CCC2)C1c1ccc(C#N)cc1)C1CC1` (centres unmarked) [Example 36.4] in this work.
An IC50 of 13.5 nM was found for `COCCNC(=O)CN1C(=O)N(c2cccc(C(F)(F)F)c2)C2=C(C(=O)CCC2)C1c1ccc(C#N)cc1` (centres unmarked) [Example 36.5] in this work.
An IC50 of 1.2 nM was found for `N#Cc1ccc(C2C3=C(CCCC3=O)N(c3cccc(C(F)(F)F)c3)C(=O)N2CC(=O)N2CC3CC3C2)cc1` (centres unmarked) [Example 36.6] in this work.
An IC50 of 3.4 nM was found for `CN(CC1CC1)C(=O)CN1C(=O)N(c2cccc(C(F)(F)F)c2)C2=C(C(=O)CCC2)C1c1ccc(C#N)cc1` (centres unmarked) [Example 36.7] in this work.
An IC50 of 2.1 nM was found for `N#Cc1ccc(C2C3=C(CCCC3=O)N(c3cccc(C(F)(F)F)c3)C(=O)N2CC(=O)N2CCC(O)C2)cc1` (centres unmarked) [Example 36.8] in this work.
An IC50 of 10.6 nM was found for `N#Cc1ccc(C2C3=C(CCCC3=O)N(c3cccc(C(F)(F)F)c3)C(=O)N2CC(=O)NC2CCOC2)cc1` (centres unmarked) [Example 36.9] in this work.
An IC50 of 20 nM was found for `CN(C)CCNC(=O)CN1C(=O)N(c2cccc(C(F)(F)F)c2)C2=C(C(=O)CCC2)C1c1ccc(C#N)cc1` (centres unmarked) [Example 36.10] in this work.
An IC50 of 5.1 nM was found for `N#Cc1ccc(C2C3=C(CCCC3=O)N(c3cccc(C(F)(F)F)c3)C(=O)N2CC(=O)N2CCC(F)C2)cc1` (centres unmarked) [Example 36.11] in this work.
An IC50 of 6.6 nM was found for `COCCN(C)C(=O)CN1C(=O)N(c2cccc(C(F)(F)F)c2)C2=C(C(=O)CCC2)C1c1ccc(C#N)cc1` (centres unmarked) [Example 36.12] in this work.
An IC50 of 20.5 nM was found for `COCCCNC(=O)CN1C(=O)N(c2cccc(C(F)(F)F)c2)C2=C(C(=O)CCC2)C1c1ccc(C#N)cc1` (centres unmarked) [Example 36.13] in this work.
An IC50 of 8.1 nM was found for `CC(C)(O)CNC(=O)CN1C(=O)N(c2cccc(C(F)(F)F)c2)C2=C(C(=O)CCC2)C1c1ccc(C#N)cc1` (centres unmarked) [Example 36.14] in this work.
An IC50 of 17.5 nM was found for `N#Cc1ccc(C2C3=C(CCCC3=O)N(c3cccc(C(F)(F)F)c3)C(=O)N2CC(=O)NCc2ccco2)cc1` (centres unmarked) [Example 36.15] in this work.
An IC50 of 3.6 nM was found for `N#Cc1ccc(C2C3=C(CCCC3=O)N(c3cccc(C(F)(F)F)c3)C(=O)N2CC(=O)N2CCC3(CC3)C2)cc1` (centres unmarked) [Example 36.16] in this work.
An IC50 of 5.5 nM was found for `N#Cc1ccc(C2C3=C(CCCC3=O)N(c3cccc(C(F)(F)F)c3)C(=O)N2CC(=O)N2CC3(CCC3)C2)cc1` (centres unmarked) [Example 36.17] in this work.
An IC50 of 4 nM was found for `CC1CN(C(=O)CN2C(=O)N(c3cccc(C(F)(F)F)c3)C3=C(C(=O)CCC3)C2c2ccc(C#N)cc2)CC1C` (centres unmarked) [Example 36.18] in this work.
An IC50 of 10.2 nM was found for `CC1CCN(C(=O)CN2C(=O)N(c3cccc(C(F)(F)F)c3)C3=C(C(=O)CCC3)C2c2ccc(C#N)cc2)CC1` (centres unmarked) [Example 36.19] in this work.
An IC50 of 11.4 nM was found for `N#Cc1ccc(C2C3=C(CCCC3=O)N(c3cccc(C(F)(F)F)c3)C(=O)N2CC(=O)N[C@H]2CCNC2=O)cc1` (some centres unmarked) [Example 36.20] in this work.
An IC50 of 2.1 nM was found for `N#Cc1ccc(C2C3=C(CCCC3=O)N(c3cccc(C(F)(F)F)c3)C(=O)N2CC(=O)N2CCNC(=O)C2)cc1` (centres unmarked) [Example 36.21] in this work.
An IC50 of 6.8 nM was found for `N#Cc1ccc(C2C3=C(CCCC3=O)N(c3cccc(C(F)(F)F)c3)C(=O)N2CC(=O)NCC2CCOC2)cc1` (centres unmarked) [Example 36.22] in this work.
An IC50 of 2.1 nM was found for `COC1CCN(C(=O)CN2C(=O)N(c3cccc(C(F)(F)F)c3)C3=C(C(=O)CCC3)C2c2ccc(C#N)cc2)C1` (centres unmarked) [Example 36.23] in this work.
An IC50 of 10.1 nM was found for `N#Cc1ccc(C2C3=C(CCCC3=O)N(c3cccc(C(F)(F)F)c3)C(=O)N2CC(=O)NCC2CCCO2)cc1` (centres unmarked) [Example 36.24] in this work.
An IC50 of 1.7 nM was found for `CC1(O)CCN(C(=O)CN2C(=O)N(c3cccc(C(F)(F)F)c3)C3=C(C(=O)CCC3)C2c2ccc(C#N)cc2)C1` (centres unmarked) [Example 36.25] in this work.
An IC50 of 17.8 nM was found for `CC(=O)NCCNC(=O)CN1C(=O)N(c2cccc(C(F)(F)F)c2)C2=C(C(=O)CCC2)C1c1ccc(C#N)cc1` (centres unmarked) [Example 36.26] in this work.
An IC50 of 4.4 nM was found for `N#Cc1ccc(C2C3=C(CCCC3=O)N(c3cccc(C(F)(F)F)c3)C(=O)N2CC(=O)N2CCSCC2)cc1` (centres unmarked) [Example 36.28] in this work.
An IC50 of 9.5 nM was found for `C[S+]([O-])CCNC(=O)CN1C(=O)N(c2cccc(C(F)(F)F)c2)C2=C(C(=O)CCC2)C1c1ccc(C#N)cc1` (centres unmarked) [Example 36.29] in this work.
An IC50 of 5.9 nM was found for `N#Cc1ccc(C2C3=C(CCCC3=O)N(c3cccc(C(F)(F)F)c3)C(=O)N2CC(=O)NCCn2ccnc2)cc1` (centres unmarked) [Example 36.30] in this work.
An IC50 of 7.8 nM was found for `Cn1cc(CNC(=O)CN2C(=O)N(c3cccc(C(F)(F)F)c3)C3=C(C(=O)CCC3)C2c2ccc(C#N)cc2)cn1` (centres unmarked) [Example 36.31] in this work.
An IC50 of 14 nM was found for `N#Cc1ccc(C2C3=C(CCCC3=O)N(c3cccc(C(F)(F)F)c3)C(=O)N2CC(=O)NCCn2cccn2)cc1` (centres unmarked) [Example 36.32] in this work.
An IC50 of 17.1 nM was found for `Cn1ccc(CNC(=O)CN2C(=O)N(c3cccc(C(F)(F)F)c3)C3=C(C(=O)CCC3)C2c2ccc(C#N)cc2)n1` (centres unmarked) [Example 36.33] in this work.
An IC50 of 10.7 nM was found for `N#Cc1ccc(C2C3=C(CCCC3=O)N(c3cccc(C(F)(F)F)c3)C(=O)N2CC(=O)N2CCC3(CC2)CC3)cc1` (centres unmarked) [Example 36.34] in this work.
An IC50 of 7 nM was found for `Cc1nnc(CNC(=O)CN2C(=O)N(c3cccc(C(F)(F)F)c3)C3=C(C(=O)CCC3)C2c2ccc(C#N)cc2)o1` (centres unmarked) [Example 36.35] in this work.
An IC50 of 7.9 nM was found for `N#Cc1ccc(C2C3=C(CCCC3=O)N(c3cccc(C(F)(F)F)c3)C(=O)N2CC(=O)NCC2CCC(=O)N2)cc1` (centres unmarked) [Example 36.36] in this work.
An IC50 of 4.2 nM was found for `CN1CCN(C(=O)CN2C(=O)N(c3cccc(C(F)(F)F)c3)C3=C(C(=O)CCC3)C2c2ccc(C#N)cc2)CC1=O` (centres unmarked) [Example 36.37] in this work.
